Reference: patent publication US8258304B2, “N-aryl piperidine substituted biphenylcarboxamides” (Janssen Pharmaceutica N.V., priority 2002, dated 2012)

tested on: secretion of ApoB in HepG2 cells; assay: Quantification of the secretion of ApoB; format: cell-based; conditions: Homo sapiens, 24 hours of incubation with test compound, apoB immunoprecipitated from medium, read-out: pIC50 values (=−log IC50 value) (converted)
Protocol: HepG2 cells were cultured in 24-well plates in MEM Rega 3 containing 10% fetal calf serum. At 70% confluency, the medium was changed and the test compound or carrier (DMSO, 0.4% final concentration) was added. After 24 hours of incubation, the medium was transferred to Eppendorf tubes and cleared by centrifugation. A sheep antibody directed against either apoB was added to the supernatant and the mixture was kept at 8° C. for 24 hours. Then, rabbit anti-sheep antibody was added and the immune complex was allowed to precipitate for 24 hours at 8° C. The immunoprecipitate was pelleted by centrifugation for 25 minutes at 1320 g and washed twice with a buffer containing 40 mM Mops, 40 mM NaH2PO4, 100 mM NaF, 0.2 mM DTT, 5 mM EDTA, 5 mM EGTA, 1% Triton-X-100, 0.5% sodium deoxycholate (DOC), 0.1% SDS, 0.2 μM leupeptin and 0.2 μM PMSF. Radioactivity in the pellet was quantified by liquid scintillation counting.
Resulting IC50 values are enumerated in Table C.1.

Structure (SMILES) | IC50 [µM]
CCNC(=O)CC1CCN(c2ccc(NC(=O)c3ccccc3-c3ccc(C(F)(F)F)cc3)cc2)CC1 [Compound 5] | 0.0384
O=C(CC1CCN(c2ccc(NC(=O)c3ccccc3-c3ccc(C(F)(F)F)cc3)cc2)CC1)NCc1ccccc1 [Compound 3] | 0.00356
CCNC(=O)CC1CCN(c2ccc(NC(=O)c3ccccc3-c3ccc(C(C)(C)C)cc3)cc2)CC1 [Compound 7] | 0.00239
O=C(Nc1ccc(N2CCC(C(=O)NCc3ccccc3)CC2)cc1)c1ccccc1-c1ccc(C(F)(F)F)cc1 [Compound 1] | 0.0254
CCNC(=O)C1CCN(c2ccc(NC(=O)c3ccccc3-c3ccc(C(F)(F)F)cc3)cc2)CC1 [Compound 4] | 0.00802
CCNC(=O)C1CCN(c2ccc(NC(=O)c3ccccc3-c3ccc(C(C)(C)C)cc3)cc2)CC1 [Compound 6] | 0.0116
COC(=O)C1CCN(c2ccc(NC(=O)c3ccccc3-c3ccc(C(F)(F)F)cc3)cc2)CC1 [Compound 9] | 0.619
CC(C)(C)c1ccc(-c2ccccc2C(=O)Nc2ccc(N3CCC(CC(=O)NCc4ccccc4)CC3)cc2)cc1 [Compound 2] | 0.00604
CC(C)(C)c1ccc(-c2ccccc2C(=O)Nc2ccc(N3CCC(C(=O)NCc4ccccc4)CC3)cc2)cc1 [Compound 8] | 0.153

Next, values leading:

IC50 [µM] | Structure (SMILES)
0.0113 | CCOC(=O)CC1CCN(c2ccc(NC(=O)c3cccc(C)c3-c3ccc(C(F)(F)F)cc3)cc2)CC1 [Compound 10]
0.0895 | CCOC(=O)CC1CCN(c2ccc(NC(=O)c3ccccc3-c3ccc(C(F)(F)F)cc3)cn2)CC1 [Compound 13]
0.0314 | CCOC(=O)CC1CCN(c2ccc(NC(=O)c3ccc(C)cc3-c3ccc(C(F)(F)F)cc3)cc2)CC1 [Compound 12]
0.00929 | CCOC(=O)CC1CCN(c2ccc(NC(=O)c3cccc(C)c3-c3ccc(C(F)(F)F)cc3)cn2)CC1 [Compound 14]
0.0256 | CCOC(=O)CC1CCN(c2ccc(NC(=O)c3ccc(C)cc3-c3ccc(C(F)(F)F)cc3)cn2)CC1 [Compound 15]
0.0121 | COC(=O)CC1CCN(c2ccc(NC(=O)c3ccccc3-c3ccc(C(F)(F)F)cc3)cc2)CC1 [Compound 11]

tested on: not given; assay: not given; conditions: not given

melting point [°C] | Structure (SMILES)
134 to 137 | CCOC(=O)CC1CCN(c2ccc(NC(=O)c3cccc(C)c3-c3ccc(C(F)(F)F)cc3)cn2)CC1 [Compound 14]
